Data as given in ChEMBL document CHEMBL1817609, “SAR studies of 4-pyridyl heterocyclic anilines that selectively induce autophagic cell death in von Hippel-Lindau-deficient renal cell carcinoma cells” (Bioorg Med Chem, 2011).

Columns and labels:
[1] = Growth inhibition of human RCC4 cells after 4 days by XTT assay; assay type: functional, cell-based; conditions: RCC4, 96 h
[2] = Growth inhibition of human RCC4/VHL cells after 4 days by XTT assay; assay type: functional, cell-based; conditions: 96 h
[3] = Selectivity ratio IC50 for human RCC4/VHL cells to IC50 for human RCC4 cells; assay type: functional

Row | Compound | IC50 ([1]; read-out: pIC50 (converted)) | IC50 ([1]; read-out: IC50) | IC50 [2] | Ratio IC50 [3]
1 | Fc1cccc(Nc2nc(-c3ccncc3)cs2)c1 | 40.7 µM |  |  | 
2 | Cc1cccc(Nc2nc(-c3ccncc3-c3ccc(C(F)(F)F)cc3)cs2)c1 | 12.9 µM | 12.8 µM | 22.6 µM | 1.8
3 | COC(=O)C=CC(=O)c1sc(Nc2cccc(C)c2)nc1-c1ccncc1 | 2.51 µM |  |  | 
4 | Cc1cccc(Nc2nc(-c3ccncc3)c[nH]2)c1 | 40.7 µM | > 40 µM | > 40 µM | 
5 | CCc1cnccc1-c1csc(Nc2cccc(C)c2)n1 | 6.31 µM |  |  | 
6 | Cc1cccc(Nc2nc(-c3ccnc(C)c3)cs2)c1 | 28.8 µM |  |  | 
7 | Brc1cccc(Nc2nc(-c3ccncc3)cs2)c1 | 40.7 µM |  |  | 
8 | Cc1cccc(Nc2nc(-c3ccnc(-c4ccccc4)c3)cs2)c1 | 19.5 µM | 19.1 µM | 40 µM | 2.1
9 | c1cc(-c2csc(Nc3ccc4c(c3)CCC4)n2)ccn1 | 2.04 µM |  |  | 
10 | Cc1cccc(Nc2nc(-c3ccncc3)c(CN3CCCCC3)s2)c1 | 13.2 µM |  |  | 
11 | Oc1cccc(Nc2nc(-c3ccncc3)cs2)c1 | 28.8 µM |  |  | 
12 | Cc1cccc(Nc2nc(-c3ccncc3-c3ccc(C(C)C)cc3)cs2)c1 | 40.7 µM | > 40 µM | > 40 µM | 
13 | Cc1cccc(Nc2nc(-c3ccncc3C#CCCO)cs2)c1 | 1.1 µM | 1.1 µM | 2.8 µM | 2.5
14 | Cc1cccc(Nc2nc(-c3ccncc3C#CCCCO)cs2)c1 | 6.3 µM | 6.3 µM | 0.3 µM | 
15 | CC(C)(C)c1cccc(Nc2nc(-c3ccncc3)cs2)c1 | 60.3 µM |  |  | 
16 | Cc1cccc(Nc2nc(-c3ccncc3-c3ccc(C(=O)NCCCN(C)C)cc3)cs2)c1 | 4.07 µM | 4 µM | 3.9 µM | 1
17 | Cc1cccc(Nc2nc(-c3ccnc(-c4ccsc4)c3)cs2)c1 | 8.71 µM | 8.7 µM | > 40 µM | >4.6
18 | Cc1cccc(Nc2nc(-c3ccncc3-c3ccc(S(=O)(=O)NC(C)(C)C)cc3)cs2)c1 | 4.57 µM | 4.5 µM | 22.5 µM | 5
19 | O=[N+]([O-])c1ccccc1Nc1nc(-c2ccncc2)cs1 | 40.7 µM |  |  | 
20 | Cc1cccc(Nc2nccc(-c3ccncc3)n2)c1 | 6.61 µM | 6.5 µM | 8.6 µM | 1.3
21 | Cc1cccc(Nc2nc(-c3ccncc3)co2)c1 | 40.7 µM | > 40 µM | > 40 µM | 
22 | Cc1cccc(Nc2nc(-c3ccncc3)c(CCCO)s2)c1 | 3.63 µM |  |  | 
23 | CCc1cc(-c2csc(Nc3cccc(C)c3)n2)ccn1 | 6.46 µM |  |  | 
24 | Cc1cccc(Nc2nc(-c3ccncc3CCCO)cs2)c1 | 6.92 µM |  |  | 

Row | Compound | IC50 ([1]; read-out: pIC50 (converted)) | IC50 ([1]; read-out: IC50) | IC50 [2] | Ratio IC50 [3]
25 | Cc1cccc(Nc2nc(-c3ccncc3N3CCN(C)CC3)cs2)c1 | 2.63 µM | 2.6 µM | 6.6 µM | 2.5
26 | Cc1cccc(Nc2nc(-c3ccnc(Cl)c3)cs2)c1 | 2.24 µM |  |  | 
27 | Cc1cccc(Nc2cncc(-c3ccncc3)n2)c1 | 8.51 µM | 8.5 µM | 31.8 µM | 3.7
28 | FC(F)(F)c1ccccc1Nc1nc(-c2ccncc2)cs1 | 40.7 µM |  |  | 
29 | Cc1cccc(Nc2nc(-c3ccncc3)n[nH]2)c1 | 28.8 µM | 28.7 µM | 22.2 µM | 0.8
30 | Cc1cccc(Nc2nc(-c3ccnc(-c4ccncc4)c3)cs2)c1 | 29.5 µM | 28.9 µM | 38 µM | 1.3
31 | Cc1cccc(Nc2nc(-c3ccnc(CCCO)c3)cs2)c1 | 5.25 µM |  |  | 
32 | Cc1cccc(Nc2nc(-c3ccnc(-c4c(C)noc4C)c3)cs2)c1 | 3.02 µM | 3 µM | 36.5 µM | 12
33 | OCc1sc(Nc2ccccc2)nc1-c1ccncc1 | 30.2 µM |  |  | 
34 | CC(=O)c1ccc(-c2cc(-c3csc(Nc4cccc(C)c4)n3)ccn2)cc1 | 38.9 µM | 38.8 µM | 33.4 µM | 0.9
35 | Cc1cccc(Nc2nc(-c3ccncc3)ns2)c1 | 25.1 µM | 24.8 µM | > 40 µM | >1.6
36 | CCc1cccc(Nc2nc(-c3ccncc3)cs2)c1 | 2.51 µM |  |  | 
37 | C#Cc1cnccc1-c1csc(Nc2cccc(C)c2)n1 | 1.38 µM |  |  | 
38 | Clc1ccc(Nc2nc(-c3ccncc3)cs2)cc1 | 38 µM |  |  | 
39 | Cc1cccc(Nc2cc(-c3ccncc3)ncn2)c1 | 23.4 µM | 23.1 µM | 28.1 µM | 1.2
40 | Cc1cccc(Nc2nc(-c3ccncc3-c3ccccc3)cs2)c1 | 11.7 µM | 11.6 µM | 33.2 µM | 2.9
41 | Cc1cccc(Nc2nc(-c3ccncc3-c3ccc(S(C)(=O)=O)cc3)cs2)c1 | 1.62 µM | 1.6 µM | 13.4 µM | 8.4
42 | Cc1cccc(Nc2nc(-c3ccncc3-c3ccc(C(N)=O)cc3)cs2)c1 | 4.17 µM | 4.1 µM | 1.6 µM | 
43 | Cc1cccc(Nc2cccc(-c3ccncc3)n2)c1 | 7.41 µM | 7.4 µM | > 40 µM | >5.4
44 | Cc1cccc(Nc2nc(-c3ccncc3OCCN3CCOCC3)cs2)c1 | 0.324 µM | 0.32 µM | 0.88 µM | 2.8
45 | FC(F)(F)c1ccc(Nc2nc(-c3ccncc3)cs2)cc1 | 40.7 µM |  |  | 
46 | Fc1ccccc1Nc1nc(-c2ccncc2)cs1 | 14.5 µM |  |  | 
47 | Cc1cc(Nc2nc(-c3ccncc3)cs2)ccc1O | 70.8 µM |  |  | 
